Measured values published in patent US11028077B2, “Crystalline pharmaceutical and methods of preparation and use thereof” (NOVARTIS PHARMACEUTICALS CORPORATION, priority 2008, dated 2021).
Where two headings read alike, the source gives them in different places.

Assays:
[1] = system: human mononuclear cells (PBMC) stimulated with staphylococcal enterotoxin B (SEB); assay: cells; format: cell-based
[2] = Rat ocular pharmacokinetics of [14C]-compound (ocular tissue levels); format: in vivo; settings: for Concentration, Aqueous humor: ocular dosing in rats
[3] = Single dose ocular and IV ADME study with [14C]-compound in rats, quantitative whole body autoradiography; format: in vivo, rat; settings: for excretion in feces, % of the administered radioactivity: 0 to 168 hours postdose
[4] = 0.5 hour postdose, topical ocular 1 mg/eye
[5] = 0.5 hour postdose, topical ocular 1 mg/eye, above upper limit of quantification
[6] = 8 hours postdose, topical ocular 1 mg/eye
[7] = 24 hours postdose, topical ocular 1 mg/eye
[8] = at 2 hours postdose vs 0.5 hour

Compound: O=C(NC(Cc1cc(=O)[nH]c2ccccc12)C(=O)O)c1ccc(Cl)cc1 (stereo not drawn) [Rebamipide, reference compound]
- EC50 ([1]; read-out: EC50 Cytokine Release GM-CSF): > 1000 µM
- EC50 ([1]; read-out: EC50 Cytokine Release IFNγ): > 1000 µM
- EC50 ([1]; read-out: EC50 Cytokine Release IL-1α): > 1000 µM
- EC50 ([1]; read-out: EC50 Cytokine Release IL-1β): > 1000 µM
- EC50 ([1]; read-out: EC50 Cytokine Release IL-2): > 1000 µM
- EC50 ([1]; read-out: EC50 Cytokine Release IL-3): > 1000 µM
- EC50 ([1]; read-out: EC50 Cytokine Release IL-4): > 1000 µM
- EC50 ([1]; read-out: EC50 Cytokine Release IL-5): > 1000 µM
- EC50 ([1]; read-out: EC50 Cytokine Release IL-6): > 1000 µM
- EC50 ([1]; read-out: EC50 Cytokine Release IL-10): > 1000 µM
- EC50 ([1]; read-out: EC50 Cytokine Release IL-12p40): > 1000 µM
- EC50 ([1]; read-out: EC50 Cytokine Release IL-13): > 1000 µM
- EC50 ([1]; read-out: EC50 Cytokine Release IP-10): > 1000 µM
- EC50 ([1]; read-out: EC50 Cytokine Release MCP-1): > 1000 µM
- EC50 ([1]; read-out: EC50 Cytokine Release MIP-1α): > 1000 µM
- EC50 ([1]; read-out: EC50 Cytokine Release TNF-α): > 1000 µM

Compound: CS(=O)(=O)c1cccc(C[C@H](NC(=O)c2c(Cl)cc3c(c2Cl)CCN(C(=O)c2ccc4ccoc4c2)C3)C(=O)O)c1 [[^14C]-compound of Formula I]
- Concentration, Conjunctiva (bulbar) ([2]; 0.5 hour after administration): 31500 ng Equivalents [^14C]-compound of Formula I/g tissue
- Concentration, Conjunctiva (palpebral) ([2]; 0.5 hour after administration): 26300 ng Equivalents [^14C]-compound of Formula I/g tissue
- Concentration, Cornea ([2]; 0.5 hour after administration): 17150 ng Equivalents [^14C]-compound of Formula I/g tissue
- Concentration, Iris-ciliary body ([2]; 0.5 hour after administration): 17550 ng Equivalents [^14C]-compound of Formula I/g tissue
- Concentration, Lens ([2]; 0.5 hour after administration): 38.8 ng Equivalents [^14C]-compound of Formula I/g tissue
- Concentration, Optic Nerve ([2]; 0.5 hour after administration): 796 ng Equivalents [^14C]-compound of Formula I/g tissue
- Concentration, Retina and Choroid (with RPE) ([2]; 0.5 hour after administration): 510 ng Equivalents [^14C]-compound of Formula I/g tissue
- Concentration, Sclera ([2]; 0.5 hour after administration): 2750 ng Equivalents [^14C]-compound of Formula I/g tissue
- Concentration, Vitreous Humor ([2]; 0.5 hour after administration): 1330 ng Equivalents [^14C]-compound of Formula I/g tissue
- Concentration, Aqueous humor ([2]; 0.5 hour after administration): 1770 ng Equivalents [^14C]-compound of Formula I/g tissue
- Concentration, Conjunctiva (bulbar) ([2]; 4.0 hours after administration): 4480 ng Equivalents [^14C]-compound of Formula I/g tissue
- Concentration, Conjunctiva (palpebral) ([2]; 4.0 hours after administration): 21830 ng Equivalents [^14C]-compound of Formula I/g tissue
- Concentration, Cornea ([2]; 4.0 hours after administration): 1346 ng Equivalents [^14C]-compound of Formula I/g tissue
- Concentration, Iris-ciliary body ([2]; 4.0 hours after administration): 500 ng Equivalents [^14C]-compound of Formula I/g tissue
- Concentration, Lens ([2]; 4.0 hours after administration): 9.69 ng Equivalents [^14C]-compound of Formula I/g tissue
- Concentration, Optic Nerve ([2]; 4.0 hours after administration): 0 ng Equivalents [^14C]-compound of Formula I/g tissue
- Concentration, Retina and Choroid (with RPE) ([2]; 4.0 hours after administration): 46.7 ng Equivalents [^14C]-compound of Formula I/g tissue
- Concentration, Sclera ([2]; 4.0 hours after administration): 387 ng Equivalents [^14C]-compound of Formula I/g tissue
- Concentration, Vitreous Humor ([2]; 4.0 hours after administration): 183 ng Equivalents [^14C]-compound of Formula I/g tissue
- Concentration, Aqueous humor ([2]; 4.0 hours after administration): 116 ng Equivalents [^14C]-compound of Formula I/g tissue
- radioactivity concentration, eye [3, 4]: 18100 ng equivalents [^14C]-compound of Formula I/g
- radioactivity concentration, liver [3, 4]: 272 ng equivalents [^14C]-compound of Formula I/g
- radioactivity concentration, uveal tract [3, 4]: 9330 ng equivalents [^14C]-compound of Formula I/g
- radioactivity concentration, esophageal contents ([3]; 0.5 hour postdose, topical ocular 1 mg/eye, male Sprague Dawley rats, above upper limit of quantification): 399000 ng equivalents [^14C]-compound of Formula I/g
- radioactivity concentration, nasal turbinates [3, 5]: 352000 ng equivalents [^14C]-compound of Formula I/g
- radioactivity concentration, small intestinal contents [3, 5]: 349000 ng equivalents [^14C]-compound of Formula I/g
- radioactivity level, eye lens ([3]; 2 hours postdose, topical ocular 1 mg/eye): BLQ
- radioactivity concentration, cecum contents [3, 6]: 57600 ng equivalents [^14C]-compound of Formula I/g
- radioactivity concentration, large intestinal contents [3, 6]: 133000 ng equivalents [^14C]-compound of Formula I/g
- radioactivity concentration, uveal tract ([3]; 12 hours postdose, topical ocular 1 mg/eye): 610 ng equivalents [^14C]-compound of Formula I/g
- radioactivity concentration, cecum contents [3, 7]: 5870 ng equivalents [^14C]-compound of Formula I/g
- radioactivity concentration, large intestinal contents [3, 7]: 18000 ng equivalents [^14C]-compound of Formula I/g
- excretion in feces, % of the administered radioactivity ([3]; IV administration 10 mg/kg): ~95%
- decline of radioactivity concentration, esophageal contents [3, 8]: ~100 fold
- decline of radioactivity concentration, esophagus [3, 8]: approximately 50 fold
- excretion in feces, % of the administered radioactivity ([3]; ocular administration 1 mg/eye): approximately 60%
- Urinary excretion, % of the administered radioactivity ([3]; ocular or IV administration): up to 2%
- metabolites in pooled plasma, urine and fecal homogenates ([3]; rats, up to 168 hrs following topical ocular or IV dose): no metabolites were isolated
